Assay results published in patent US8329706B2, “Oxazolidinone derivatives” (Actelion Pharmaceuticals Ltd., priority 2009, dated 2012).

Tests used:
human orexin-1 receptor = molecular target: T1, human orexin-1 receptor (Homo sapiens, UniProt O43613); test: FLIPR intracellular calcium assay, orexin receptor antagonistic activity (OX1); type: cell-based; details: CHO cells expressing human orexin-1 receptor; agonist 3 nM orexin-A; normalized to on-plate reference; * geomean n = 5, *2 geomean n = 2
T1 construct: expressed in transfected cells; host or cells: CHO cells (G418 selection)
T1 sequence (O43613 1-425): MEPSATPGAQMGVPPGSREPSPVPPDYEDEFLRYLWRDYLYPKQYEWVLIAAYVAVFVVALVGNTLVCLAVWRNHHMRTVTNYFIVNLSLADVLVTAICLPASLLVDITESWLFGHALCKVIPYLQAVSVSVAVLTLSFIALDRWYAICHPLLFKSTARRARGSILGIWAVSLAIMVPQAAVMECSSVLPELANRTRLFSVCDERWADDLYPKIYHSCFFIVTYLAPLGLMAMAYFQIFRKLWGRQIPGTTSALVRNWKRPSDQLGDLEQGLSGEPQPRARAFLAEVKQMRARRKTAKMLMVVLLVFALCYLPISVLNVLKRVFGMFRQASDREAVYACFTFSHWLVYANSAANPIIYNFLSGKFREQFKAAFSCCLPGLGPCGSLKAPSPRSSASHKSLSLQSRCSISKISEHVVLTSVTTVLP
Method: (§1) The orexin receptor antagonistic activity of the compounds of formula (I) is determined in accordance with the following experimental method.
(§2) Chinese hamster ovary (CHO) cells expressing the human orexin-1 receptor and the human orexin-2 receptor, respectively, are grown in culture medium (Ham F-12 with L-Glutamine) containing 300 μg/ml G418, 100 U/ml penicillin, 100 μg/ml streptomycin and 10% heat inactivated fetal calf serum (FCS). The cells are seeded at 20′000 cells/well into 384-well black clear bottom sterile plates (Greiner). The seeded plates are incubated overnight at 37° C. in 5% CO2.
(§3) Human orexin-A as an agonist is prepared as 1 mM stock solution in MeOH:water (1:1), diluted in HBSS containing 0.1% bovine serum albumin (BSA), NaHCO3: 0.375 g/l and 20 mM HEPES for use in the assay at a final concentration of 3 nM.
(§4) Antagonists are prepared as 10 mM stock solution in DMSO, then diluted in 384-well plates using DMSO followed by a transfer of the dilutions into in HBSS containing 0.1% bovine serum albumin (BSA), NaHCO3: 0.375 g/l and 20 mM HEPES. On the day of the assay, 50 μl of staining buffer (HBSS containing 1% FCS, 20 mM HEPES, NaHCO3: 0.375 g/l, 5 mM probenecid (Sigma) and 3 μM of the fluorescent calcium indicator fluo-4 AM (1 mM stock solution in DMSO, containing 10% pluronic) is added to each well. The 384-well cell-plates are incubated for 50 min at 37° C. in 5% CO2 followed by equilibration at rt for 30-120 min before measurement.
(§5) Within the Fluorescent Imaging Plate Reader (FLIPR Tetra, Molecular Devices), antagonists are added to the plate in a volume of 10 μl/well, incubated for 10 min and finally 10 μl/well of agonist is added. Fluorescence is measured for each well at 1 second intervals, and the height of each fluorescence peak is compared to the height of the fluorescence peak induced by 3 nM orexin-A with vehicle in place of antagonist. For each antagonist, the IC50 value (the concentration of compound needed to inhibit 50% of the agonistic response) is determined and normalized using the obtained IC50 value of a on-plate reference compound. Optimized conditions were achieved by adjustment of pipetting speed and cell splitting regime. The calculated IC50 values of the compounds may fluctuate depending on the daily cellular assay performance. Fluctuations of this kind are known to those skilled in the art.

human orexin-2 receptor = molecular target: T2, human orexin-2 receptor (Homo sapiens, UniProt O43614); test: FLIPR intracellular calcium assay, orexin receptor antagonistic activity (OX2); type: cell-based; details: CHO cells expressing human orexin-2 receptor; agonist 3 nM orexin-A; normalized to on-plate reference; * geomean n = 5, *2 geomean n = 2
T2 construct: expressed in transfected cells; host or cells: CHO cells (G418 selection)
T2 sequence (O43614 1-444): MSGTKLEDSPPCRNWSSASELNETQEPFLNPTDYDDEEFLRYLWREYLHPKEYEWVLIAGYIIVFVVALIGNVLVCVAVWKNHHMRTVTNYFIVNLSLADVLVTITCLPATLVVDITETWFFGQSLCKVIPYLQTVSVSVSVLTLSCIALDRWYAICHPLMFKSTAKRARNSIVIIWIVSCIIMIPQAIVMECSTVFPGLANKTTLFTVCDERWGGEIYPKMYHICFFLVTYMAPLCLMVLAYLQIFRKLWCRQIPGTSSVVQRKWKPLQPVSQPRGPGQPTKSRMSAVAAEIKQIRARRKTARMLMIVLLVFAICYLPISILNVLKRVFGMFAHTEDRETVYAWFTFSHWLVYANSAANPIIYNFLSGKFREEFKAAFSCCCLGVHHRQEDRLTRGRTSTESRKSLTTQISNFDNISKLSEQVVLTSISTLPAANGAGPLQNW
Method: as §1, §2, §3, §4, §5

Molecule	IC50 (human orexin-1 receptor) [nM]	IC50 (human orexin-2 receptor) [nM]
3-(3-Chloro-4-methyl-benzyl)-2-(2,6-dimethoxy-phenyl)-oxazolidin-4-one [Example 43]	553	349
CCOc1ccccc1C1OCC(=O)N1Cc1ccc(Cl)c(C(F)(F)F)c1 (stereo not drawn) [Example 1, 3-(4-Chloro-3-trifluoromethyl-benzyl)-2-(2-ethoxy-phenyl)-oxazolidin-4-one]	6490	263
CCOc1ccccc1C1OCC(=O)N1Cc1ccccc1C (stereo not drawn) [Example 2, 2-(2-Ethoxy-phenyl)-3-(2-methyl-benzyl)-oxazolidin-4-one]	> 10000	223
CCOc1ccccc1C1OCC(=O)N1Cc1ccc(C(F)(F)F)cc1 (stereo not drawn) [Example 3, 2-(2-Ethoxy-phenyl)-3-(4-trifluoromethyl-benzyl)-oxazolidin-4-one]	9990	230
CCOc1ccccc1C1OCC(=O)N1Cc1cccc(OC)c1 (stereo not drawn) [Example 4, 2-(2-Ethoxy-phenyl)-3-(3-methoxy-benzyl)-oxazolidin-4-one]	> 10000	705
CCOc1ccccc1C1OCC(=O)N1Cc1cccc(C(F)(F)F)c1 (stereo not drawn) [Example 5, 2-(2-Ethoxy-phenyl)-3-(3-trifluoromethyl-benzyl)-oxazolidin-4-one]	> 10000	462
CCOc1ccccc1C1OCC(=O)N1Cc1ccc(OC(F)(F)F)cc1 (stereo not drawn) [Example 6, 2-(2-Ethoxy-phenyl)-3-(4-trifluoromethoxy-benzyl)-oxazolidin-4-one]	> 10000	55
CCOc1ccccc1C1OCC(=O)N1Cc1cccc(OC(F)(F)F)c1 (stereo not drawn) [Example 7, 2-(2-Ethoxy-phenyl)-3-(3-trifluoromethoxy-benzyl)-oxazolidin-4-one]	6810	74
CCOc1ccccc1C1OCC(=O)N1Cc1ccc(F)c(C)c1 (stereo not drawn) [Example 8, 2-(2-Ethoxy-phenyl)-3-(4-fluoro-3-methyl-benzyl)-oxazolidin-4-one]	9170	584
CCOc1ccccc1C1OCC(=O)N1Cc1ccc(F)c(Cl)c1 (stereo not drawn) [Example 9, 3-(3-Chloro-4-fluoro-benzyl)-2-(2-ethoxy-phenyl)-oxazolidin-4-one]	8740	79
CCOc1ccccc1C1OCC(=O)N1Cc1cc(C(F)(F)F)cc(Cl)c1F (stereo not drawn) [Example 10, 3-(3-Chloro-2-fluoro-5-trifluoromethyl-benzyl)-2-(2-ethoxy-phenyl)-oxazolidin-4-one]	8410	693
CCOc1ccccc1C1OCC(=O)N1Cc1cccc(C(F)(F)F)c1C (stereo not drawn) [Example 11, 2-(2-Ethoxy-phenyl)-3-(2-methyl-3-trifluoromethyl-benzyl)-oxazolidin-4-one]	5410	385
CCOc1ccccc1C1OCC(=O)N1Cc1cc(C(F)(F)F)ccc1Cl (stereo not drawn) [Example 12, 3-(2-Chloro-5-trifluoromethyl-benzyl)-2-(2-ethoxy-phenyl)-oxazolidin-4-one]	4040	590
CCOc1ccccc1C1OCC(=O)N1Cc1cc(C(F)(F)F)ccc1F (stereo not drawn) [Example 13, 2-(2-Ethoxy-phenyl)-3-(2-fluoro-5-trifluoromethyl-benzyl)-oxazolidin-4-one]	> 10000	290
CCOc1ccccc1C1OCC(=O)N1Cc1ccc(F)c(C(F)(F)F)c1 (stereo not drawn) [Example 14, 2-(2-Ethoxy-phenyl)-3-(4-fluoro-3-trifluoromethyl-benzyl)-oxazolidin-4-one]	> 10000	169
CCOc1ccccc1C1OCC(=O)N1Cc1ccc(C(F)(F)F)c(F)c1 (stereo not drawn) [Example 15, 2-(2-Ethoxy-phenyl)-3-(3-fluoro-4-trifluoromethyl-benzyl)-oxazolidin-4-one]	> 10000	359
CCOc1ccccc1C1OCC(=O)N1Cc1c(F)ccc(F)c1Cl (stereo not drawn) [Example 16, 3-(2-Chloro-3,6-difluoro-benzyl)-2-(2-ethoxy-phenyl)-oxazolidin-4-one]	590	3810
CCOc1ccccc1C1OCC(=O)N1Cc1ccc(Cl)c(F)c1 (stereo not drawn) [Example 17, 3-(4-Chloro-3-fluoro-benzyl)-2-(2-ethoxy-phenyl)-oxazolidin-4-one]	9370	627
CCOc1ccccc1C1OCC(=O)N1Cc1ccc(OC(F)(F)F)c(Cl)c1 (stereo not drawn) [Example 18, 3-(3-Chloro-4-trifluoromethoxy-benzyl)-2-(2-ethoxy-phenyl)-oxazolidin-4-one]	8790	26
CCOc1ccccc1C1OCC(=O)N1Cc1ccc(Cl)cc1F (stereo not drawn) [Example 19, 3-(4-Chloro-2-fluoro-benzyl)-2-(2-ethoxy-phenyl)-oxazolidin-4-one]	9600	586
CCOc1ccccc1C1OCC(=O)N1Cc1ccccc1F (stereo not drawn) [Example 20, 2-(2-Ethoxy-phenyl)-3-(2-fluoro-benzyl)-oxazolidin-4-one]	> 10000	262
CCOc1ccccc1C1OCC(=O)N1Cc1ccc(Cl)cc1 (stereo not drawn) [Example 21, 3-(4-Chloro-benzyl)-2-(2-ethoxy-phenyl)-oxazolidin-4-one]	> 10000	696
CCOc1ccccc1C1OCC(=O)N1Cc1ccc(C(F)(F)F)cc1F (stereo not drawn) [Example 22, 2-(2-Ethoxy-phenyl)-3-(2-fluoro-4-trifluoromethyl-benzyl)-oxazolidin-4-one]	> 10000	839
CCOc1ccccc1C1OCC(=O)N1Cc1c(Cl)cccc1Cl (stereo not drawn) [Example 23, 3-(2,6-Dichloro-benzyl)-2-(2-ethoxy-phenyl)-oxazolidin-4-one]	1840	787
CCOc1ccccc1C1OCC(=O)N1Cc1cccc(C)c1 (stereo not drawn) [Example 24, 2-(2-Ethoxy-phenyl)-3-(3-methyl-benzyl)-oxazolidin-4-one]	> 10000	363
CCOc1ccccc1C1OCC(=O)N1Cc1ccc(F)cc1 (stereo not drawn) [Example 25, 2-(2-Ethoxy-phenyl)-3-(4-fluoro-benzyl)-oxazolidin-4-one]	> 10000	199
CCOc1ccccc1C1OCC(=O)N1Cc1ccc(F)c(F)c1 (stereo not drawn) [Example 26, 3-(3,4-Difluoro-benzyl)-2-(2-ethoxy-phenyl)-oxazolidin-4-one]	> 10000	652
CCOc1ccccc1C1OCC(=O)N1Cc1ccc(OC)cc1 (stereo not drawn) [Example 27, 2-(2-Ethoxy-phenyl)-3-(4-methoxy-benzyl)-oxazolidin-4-one]	> 10000	353
CCOc1ccccc1C1OCC(=O)N1Cc1cc(C)ccc1C(F)(F)F (stereo not drawn) [Example 28, 2-(2-Ethoxy-phenyl)-3-(5-methyl-2-trifluoromethyl-benzyl)-oxazolidin-4-one]	8020	661
CCOc1ccccc1C1OCC(=O)N1Cc1ccc(Cl)c(Cl)c1 (stereo not drawn) [Example 29, 3-(3,4-Dichloro-benzyl)-2-(2-ethoxy-phenyl)-oxazolidin-4-one]	> 10000	696
